Values of other authors as cited in US5700484A, “Sustained release microparticulate caffeine formulation” (Nestec S.A., priority 1996, dated 1997).

Settings: 350 mg caffeine oral, aqueous solution

Cn1c(=O)c2c(ncn2C)n(C)c1=O [caffeine, 1,3,7-trimethyl xanthine]
maximum plasma level: approximately 8.3 μg/ml
